According to patent publication US20100048545A1, “Compounds and Compositions for Use in the Prevention and Treatment of Disorders of Fat Metabolism and Obesity” (INNODIA INC., priority 2006, published 2010):
Where two headings read alike, the source gives them in different places.

Columns and labels:
[1] = tested on: Wistar rats fed HFHS diets; test: Energy expenditure (oxygen consumption) by indirect calorimetry in HFHS fed rats; type: in vivo; conditions: 100 mg/kg oral gavage twice daily, 4 weeks, vs pair fed and HFHS control, p<0.01
Experimental: A study was conducted to determine whether the decrease in adiposity as described above was due to increased energy expenditure. For this study, Wistar rats were randomized into 3 groups (n=10/group) and fed HFHS diets. […] The second group of animals served as pair fed controls, and while not treated with drug, diet in terms of caloric intake was matched to treated animals. The third group was fed a HFHS diet ad libitum without any treatment. After a 4 week period of treatment these animals were assessed by indirect calorimetry with increased oxygen consumption used as an indicator of increased energy expenditure.

ATGL = test: RT-PCR gene expression in adipocytes of treated rats: ATGL; type: in vivo
Experimental: (§1) As the ex vivo studies on adipocytes indicated the lipolytic effect of drug was due to chronic exposure (see previous example), a role in gene regulation was assessed. RT-PCR was used to assess the expression of genes in the adipocytes from treated and control animals.

[2] = tested on: normal Wistar rats fed a high fat, high sucrose diet (HFHS); test: Prevention of weight gain in rat model of diet-induced obesity (HFHS diet), 28 days; conditions: 100 mg/kg twice daily oral; for weight gain: HFHS diet
Description: The aim of this study was to evaluate the effect of chronic administration of 4-hydroxyisoleucine (4-OH, Compound 14a) on food consumption, tissue weight, and body weight gain of normal Wistar rats fed a high fat, high sucrose diet (HFHS).
The animals were acclimated for 1 week and fed standard chow prior to the commencement of treatment, then for the 28 days of the treatment the animals were fed a high fat, high sucrose diet (HFHS). A total of 30 animals were used in the study. The animals were distributed into 3 groups each composed of 10 animals: 1 group fed HFHS with treatment, 1 untreated control group fed standard chow, and 1 untreated group fed HFHS. Animals were housed separately and food consumption was monitored daily.
For the four weeks of treatment, the test compounds were dissolved in reverse osmosis water. 4-hydroxyisoleucine (4-OH) was aliquoted and kept at 4° C. Treated animals received twice daily oral administration of 4-OH at 100 mg/kg per dose. Control animals received water twice daily.

Sprague-Dawley rats = test: 13-week oral toxicity study: body weight and lipid profiles of SD rats fed regular chow; type: in vivo
Experimental: Sprague-Dawley rats were received at 7-12 weeks of age (225-300 g). […] The control group received vehicle (water) alone. Body weights were recorded once prior to group assignment, and approximately one week prior to initiation of treatment. Then, body weights were recorded for all animals up to 1 day prior to dosing and weekly thereafter during the treatment period. At the end of the treatment period, a blood sample was withdrawn to measure plasma triglyceride and cholesterol levels.

CPT1 = test: RT-PCR gene expression in adipocytes of treated rats: CPT1; type: in vivo; conditions: data not shown
Experimental: as §1

DIO-mice = type: in vivo
Description: The objective of this study was to evaluate the effect of chronic administration of 4-hydroxyisoleucine (4-OH, compound 14a) on food consumption and body weight gain of DIO-mice. Both parameters were monitored for 1 week prior to the commencement of treatment, then for the 77 days of treatment and for an additional 12 days post-treatment.
C57BL/6 mice were received at 7-8 weeks of age and fed a high fat diet (60% of calories from fat) for several weeks. A total of 32 animals were used in the study. The animals were distributed into 4 groups (3 treated, 1 control group, all on high fat diet). Each group was composed of 8 animals. The mice were randomized according to body weight and basal glycemia values following a 5±0.5 hour fasting period.
The test agent was dissolved in reverse osmosis water. 4-Hydroxyisoleucine was aliquoted and kept at 4° C. Control animals received reverse osmosis water twice daily (group 1). Mice from groups 2, 3 and 4 were treated twice daily with 4-hydroxyisoleucine (4-OH, compound 14a) at 100, 50, and 25 mg/kg, respectively. All groups were treated by oral gavage. Treatment commenced on Day 0 and ended on Day 77. Food consumption was measured daily and averaged on a weekly basis beginning one week before the start of treatment as shown in FIG. 16B. Similarly, food consumption was monitored during the treatment period and for 12 days after treatment was stopped as shown in FIGS. 16A and 16B.

[3] = tested on: lean mice subjected to a high fat diet; test: Prevention of obesity in lean mice subjected to a high fat diet, 21 days; type: in vivo, C57BL/6 mice; conditions: for transient increase of caloric intake: HFD
Description: C57BL/6 mice were fed a standard chow (LabDiet #5001; 12% of calories from fat) upon arrival and during the acclimation and pre-treatment periods. […] Treatment was initiated on the first day of experimentation (Day 1) and lasted 21 days. Animals from group 1 were fed the standard chow for the duration of the study and received water orally twice daily (ND: normal diet control). Mice from group 2 were given the high fat diet (HFD; 60% of calories from fat) starting on day 1 of experimentation and until day 21 of the study. These mice also received water by oral gavage and served as the high fat diet control (ND→HFD). Mice from group 3 and 4 were also fed the high fat diet upon start of treatment on day 1 and for the duration of the study but were treated orally twice daily with 100 and 150 mg/kg of 4-OH. From day 1 to day 21 of the study, body weight and food consumption were measured daily.

[4] = tested on: C57BL/6 mice fed a high fat diet; test: Analogs and isomers of 4-hydroxyisoleucine on body weight gain in C57BL/6 mice fed a high fat diet, 3 days; type: in vivo
Experimental: C57BL/6 mice were received at 6-7 weeks of age and fed a standard commercial chow for 1 week (acclimation period). The animals were randomized based on their body weight values, into control and treatment groups (n=6). Then, animals were shifted to a high fat diet (60% of calories from fat) and treated twice daily by oral gavage with 4-hydroxyisoleucine (4-OH, compound 14a) or different analogs and isomers of 4-OH at the dose of 100 mg per kg of body weight for 3 days. The control group (Control HFD) received vehicle (water) alone and a group was kept under standard chow (Control Lean). Body weight of the mice was recorded daily. Two different experiments were run and the effect on body weight gain of selected analogs and isomers according to the invention is presented in FIG. 30A (Experiment 1) and FIG. 30B (Experiment 2).

FatB1 = test: RT-PCR gene expression in adipocytes of treated rats: FatB1; type: in vivo; conditions: data not shown
Experimental: as §1

[5] = 100, 200, 400 mg/kg/day, Day 92

## C[C@@H]([C@H](C)O)[C@H](N)C(=O)O [Compound 14a, (2S,3R,4S)-4-Hydroxyisoleucine]
[1]
  oxygen consumption (energy expenditure), night phase: oxygen consumption was increased
ATGL
  expression of ATGL, increase: more than two times
ATGL; HFHS diet, treated for 4 weeks (28 days)
  Increase (x times) in expression of ATGL: 2.6 x times
[2]
  epididymal and peri-renal adipose tissue: reduction of epididymal and peri-renal adipose tissue
  food consumption: reduction in food consumption
  muscle, brown fat, and organ weight: not affected
  tolerability of treatment: well tolerated
  weight gain: prevention of weight gain
[2]; listed as 4-OH
  weight gain: Moderation of weight gain was observed
Sprague-Dawley rats; 200 mg/kg/day, 13 weeks
  average body weight at end of treatment, male rats: 527 g
Sprague-Dawley rats; 400 mg/kg/day, 13 weeks
  average body weight at end of treatment, male rats: 520 g
Sprague-Dawley rats; 400 mg/kg/day, male rats
  reduction of triglycerides, significance: statistically significant
Sprague-Dawley rats; [5]
  cholesterol levels, male rats: reduced in a dose-dependant manner
  triglyceride levels, male rats: reduced in a dose-dependant manner
Sprague-Dawley rats; 200 and 400 mg/kg/day once daily oral, 13 weeks, vs control
  body weight, male rats: clear reduction of body weight compared to control rats
Sprague-Dawley rats; 200 and 400 mg/kg/day, male rats
  reduction of cholesterol, significance: statistically significant
CPT1
  expression of CPT1: Upregulation
DIO-mice; 100 mg/kg twice daily, Day 28 to Day 84
  body weight gain: significantly effective at controlling body weight gain
DIO-mice; 100 mg/kg twice daily, Day 28 to Day 84, listed as 4-OH
  body weight gain: sustained and highly significant
DIO-mice; 100 mg/kg twice daily, first week of treatment
  food consumption: slight decrease in food consumption
DIO-mice; 100 mg/kg, first week following cessation of treatment
  body weight gain and food consumption after treatment was stopped: increase in the first week following cessation of treatment
DIO-mice; 25, 50 and 100 mg/kg twice daily, oral gavage, 77 days
  tolerability of treatment: well-tolerated
DIO-mice; 50 and 100 mg/kg twice daily, first three weeks of treatment
  body weight gain: moderation of weight gain was observed
[3]; 100 mg/kg
  transient increase of caloric intake: less pronounced
[3]; 150 mg/kg
  transient increase of caloric intake: completely abolished this increase of caloric intake
[3]; 150 mg/kg, day 2 to day 6 of treatment
  caloric intake: even lower than mice fed the standard chow
[3]; 100 and 150 mg/kg orally twice daily, 21 days
  weight gain induced by high fat feeding: completely prevented
[3]; 100 and 150 mg/kg, after 21 days, p<0.01
  epididymal fat weight: prevented significantly the increase of weight of the epididymal fat
[3]; highest dose (150 mg/kg), high fat diet
  body weight compared to ND mice: decreased body weight compared to mice fed the standard chow
[4]; 100 mg/kg twice daily oral gavage
  body weight gain induced by the high fat diet: reduced body weight gain induced by the high fat diet
[4]; 100 mg/kg twice daily, one experiment (FIG. 30B)
  body weight compared to pre-treatment values: reduced body weight of the mice as compared to pre-treatment values
FatB1
  expression of FatB1: Upregulation
